According to patent publication US20260166128A1, “HUMAN AMYLIN ANALOG, AND DERIVATIVE THEREOF AND USE THEREOF” (priority 2022, published 2026):
Where two headings read alike, the source gives them in different places. Numbered stars: 1 amine (or outer) side, 2 acyl side, 3 side chain; on linkers, the order of the positions; unused ones are H or OH. Bridge positions count the residues as written; N and C are the ends. Square brackets hold non-standard residues; d marks the D form. Side chains are listed from the residue outwards. Peptide text beside a SMILES is read from it. * marks the point of attachment. C20 diacid = O=C(O)CCCCCCCCCCCCCCCCCCC(=O)*; C18 diacid = O=C(O)CCCCCCCCCCCCCCCCC(=O)*; γGlu = O=C(O)[C@H](CCC(=O)[*:2])N[*:1]; Hyp = O=C(O)[C@@H]1C[C@@H](O)CN1; AEEA = NCCOCCOCC(=O)O

Molecular target: T1, human amylin receptor (Homo sapiens, UniProt O60896+P30988)
T1 construct: host or cells: CHO-K1/Ga15/AMY3 cells, further stably transfected with a CRE-luciferase plasmid
T1 sequence (P30988 25-474): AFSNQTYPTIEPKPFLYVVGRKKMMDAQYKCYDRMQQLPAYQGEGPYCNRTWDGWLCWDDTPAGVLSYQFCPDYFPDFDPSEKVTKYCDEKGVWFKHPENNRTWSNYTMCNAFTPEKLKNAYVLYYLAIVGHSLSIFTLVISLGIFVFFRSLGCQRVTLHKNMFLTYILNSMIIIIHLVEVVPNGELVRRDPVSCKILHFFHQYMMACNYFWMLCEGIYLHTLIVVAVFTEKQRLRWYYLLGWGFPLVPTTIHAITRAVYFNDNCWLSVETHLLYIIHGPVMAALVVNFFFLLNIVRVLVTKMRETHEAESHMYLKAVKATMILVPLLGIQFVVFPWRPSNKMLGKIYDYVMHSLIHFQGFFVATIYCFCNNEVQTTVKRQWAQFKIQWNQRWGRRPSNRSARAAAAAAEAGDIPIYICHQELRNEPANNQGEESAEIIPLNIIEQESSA
T1 sequence (O60896 24-148 partner): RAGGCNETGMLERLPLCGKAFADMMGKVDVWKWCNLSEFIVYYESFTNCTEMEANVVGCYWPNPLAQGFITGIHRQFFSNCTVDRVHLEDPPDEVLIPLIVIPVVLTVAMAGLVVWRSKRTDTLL
Assay: Luciferase assay of amylin derivatives in amylin receptor/CRE-luc CHO cell line
Assay type: cell-based
Conditions: 24 hours incubation, F12 medium containing 10% FBS

[1] = CHO-K1/Ga15/AMY3 CRE-luc cells, read-out: EC50

Procedure: The experiment was intended to detect the activity or efficacy of the amylin derivatives on a human amylin receptor in vitro by luciferase assay.
50 μL of growth medium (F12 medium containing 10% FBS) was added into each well of a white 96-well plate, and the stably transfected amylin/CRE-lue CHO cells were inoculated into the white 96-well plate at a density of about 20,000 cells/well for activity determination.

CC[C@H](C)[C@H](NC(=O)[C@@H]1CCCN1C(=O)CNC(=O)[C@H](CC(C)C)NC(=O)[C@H](CC(N)=O)NC(=O)[C@H](CC(N)=O)NC(=O)[C@H](CCCCNC(=O)CC[C@H](NC(=O)CCCCCCCCCCCCCCCCC(=O)O)C(=O)O)NC(=O)[C@H](CO)NC(=O)[C@H](Cc1c[nH]cn1)NC(=O)[C@H](CCCNC(=N)N)NC(=O)[C@H](CC(C)C)NC(=O)[C@H](Cc1ccccc1)NC(=O)[C@H](CC(=O)O)NC(=O)[C@H](C)NC(=O)[C@H](CC(C)C)NC(=O)[C@H](CCCNC(=N)N)NC(=O)[C@H](CCC(N)=O)NC(=O)[C@@H](NC(=O)[C@H](C)NC(=O)[C@@H]1CSSC[C@H](NC(=O)[C@@H](N)CCCNC(=N)N)C(=O)N[C@@H](CC(N)=O)C(=O)N[C@@H]([C@@H](C)O)C(=O)N[C@@H](C)C(=O)N[C@@H]([C@@H](C)O)C(=O)N1)[C@@H](C)O)C(=O)N[C@@H](CC(C)C)C(=O)N1CCC[C@H]1C(=O)N1CCC[C@H]1C(=O)N[C@H](C(=O)N[C@@H](CC(N)=O)C(=O)N[C@H](C(=O)NCC(=O)N[C@@H](CO)C(=O)N[C@@H](CC(N)=O)C(=O)N[C@H](C(=O)N1C[C@H](O)C[C@H]1C(N)=O)[C@@H](C)O)C(C)C)[C@@H](C)O [PD096] (H-RCNTATCATQRLADFLRHSK([γGlu-C18 diacid])NNLGPILPPTNVGSNT[Hyp]-NH2; disulfide 2-7)
EC50 [1]: 0.042 nM

CC[C@H](C)[C@H](NC(=O)[C@@H]1CCCN1C(=O)CNC(=O)[C@H](CC(C)C)NC(=O)[C@H](CC(N)=O)NC(=O)[C@H](CC(N)=O)NC(=O)[C@H](CCCCNC(=O)COCCOCCNC(=O)COCCOCCNC(=O)CC[C@H](NC(=O)CCCCCCCCCCCCCCCCC(=O)O)C(=O)O)NC(=O)[C@H](CO)NC(=O)[C@H](Cc1c[nH]cn1)NC(=O)[C@H](CCCNC(=N)N)NC(=O)[C@H](CC(C)C)NC(=O)[C@H](Cc1ccccc1)NC(=O)[C@H](CC(=O)O)NC(=O)[C@H](C)NC(=O)[C@H](CC(C)C)NC(=O)[C@H](CCCNC(=N)N)NC(=O)[C@H](CCC(N)=O)NC(=O)[C@@H](NC(=O)[C@H](C)NC(=O)[C@@H]1CSSC[C@H](NC(=O)[C@@H](N)CCCNC(=N)N)C(=O)N[C@@H](CC(N)=O)C(=O)N[C@@H]([C@@H](C)O)C(=O)N[C@@H](C)C(=O)N[C@@H]([C@@H](C)O)C(=O)N1)[C@@H](C)O)C(=O)N[C@@H](CC(C)C)C(=O)N1CCC[C@H]1C(=O)N1CCC[C@H]1C(=O)N[C@H](C(=O)N[C@@H](CC(N)=O)C(=O)N[C@H](C(=O)NCC(=O)N[C@@H](CO)C(=O)N[C@@H](CC(N)=O)C(=O)N[C@H](C(=O)N1C[C@H](O)C[C@H]1C(N)=O)[C@@H](C)O)C(C)C)[C@@H](C)O [PD097] (H-RCNTATCATQRLADFLRHSK([AEEA-AEEA-γGlu-C18 diacid])NNLGPILPPTNVGSNT[Hyp]-NH2; disulfide 2-7)
EC50 [1]: 0.014 nM

CC[C@H](C)[C@H](NC(=O)[C@@H]1CCCN1C(=O)CNC(=O)[C@H](CC(C)C)NC(=O)[C@H](CC(N)=O)NC(=O)[C@H](CC(N)=O)NC(=O)[C@H](CO)NC(=O)[C@H](CCCCNC(=O)CC[C@H](NC(=O)CCCCCCCCCCCCCCCCCCC(=O)O)C(=O)O)NC(=O)[C@H](Cc1c[nH]cn1)NC(=O)[C@H](CCCNC(=N)N)NC(=O)[C@H](CC(C)C)NC(=O)[C@H](Cc1ccccc1)NC(=O)[C@H](CC(=O)O)NC(=O)[C@H](C)NC(=O)[C@H](CC(C)C)NC(=O)[C@H](CCCNC(=N)N)NC(=O)[C@H](CCC(N)=O)NC(=O)[C@@H](NC(=O)[C@H](C)NC(=O)[C@@H]1CSSC[C@H](NC(=O)[C@@H](N)CCCNC(=N)N)C(=O)N[C@@H](CC(N)=O)C(=O)N[C@@H]([C@@H](C)O)C(=O)N[C@@H](C)C(=O)N[C@@H]([C@@H](C)O)C(=O)N1)[C@@H](C)O)C(=O)N[C@@H](CC(C)C)C(=O)N1CCC[C@H]1C(=O)N1CCC[C@H]1C(=O)N[C@H](C(=O)N[C@@H](CC(N)=O)C(=O)N[C@H](C(=O)NCC(=O)N[C@@H](CO)C(=O)N[C@@H](CC(N)=O)C(=O)N[C@H](C(=O)N1C[C@H](O)C[C@H]1C(N)=O)[C@@H](C)O)C(C)C)[C@@H](C)O [PD098] (H-RCNTATCATQRLADFLRHK([γGlu-C20 diacid])SNNLGPILPPTNVGSNT[Hyp]-NH2; disulfide 2-7)
EC50 [1]: 0.077 nM

CC[C@H](C)[C@H](NC(=O)[C@@H]1CCCN1C(=O)CNC(=O)[C@H](CC(C)C)NC(=O)[C@H](CC(N)=O)NC(=O)[C@H](CC(N)=O)NC(=O)[C@H](CO)NC(=O)[C@H](CCCCNC(=O)COCCOCCNC(=O)COCCOCCNC(=O)CC[C@H](NC(=O)CCCCCCCCCCCCCCCCCCC(=O)O)C(=O)O)NC(=O)[C@H](Cc1c[nH]cn1)NC(=O)[C@H](CCCNC(=N)N)NC(=O)[C@H](CC(C)C)NC(=O)[C@H](Cc1ccccc1)NC(=O)[C@H](CC(=O)O)NC(=O)[C@H](C)NC(=O)[C@H](CC(C)C)NC(=O)[C@H](CCCNC(=N)N)NC(=O)[C@H](CCC(N)=O)NC(=O)[C@@H](NC(=O)[C@H](C)NC(=O)[C@@H]1CSSC[C@H](NC(=O)[C@@H](N)CCCNC(=N)N)C(=O)N[C@@H](CC(N)=O)C(=O)N[C@@H]([C@@H](C)O)C(=O)N[C@@H](C)C(=O)N[C@@H]([C@@H](C)O)C(=O)N1)[C@@H](C)O)C(=O)N[C@@H](CC(C)C)C(=O)N1CCC[C@H]1C(=O)N1CCC[C@H]1C(=O)N[C@H](C(=O)N[C@@H](CC(N)=O)C(=O)N[C@H](C(=O)NCC(=O)N[C@@H](CO)C(=O)N[C@@H](CC(N)=O)C(=O)N[C@H](C(=O)N1C[C@H](O)C[C@H]1C(N)=O)[C@@H](C)O)C(C)C)[C@@H](C)O [PD099] (H-RCNTATCATQRLADFLRHK([AEEA-AEEA-γGlu-C20 diacid])SNNLGPILPPTNVGSNT[Hyp]-NH2; disulfide 2-7)
EC50 [1]: 0.033 nM

CC[C@H](C)[C@H](NC(=O)[C@@H]1CCCN1C(=O)CNC(=O)[C@H](CC(C)C)NC(=O)[C@H](CC(N)=O)NC(=O)[C@H](CC(N)=O)NC(=O)[C@H](CO)NC(=O)[C@H](CCCCNC(=O)CC[C@H](NC(=O)CCCCCCCCCCCCCCCCC(=O)O)C(=O)O)NC(=O)[C@H](Cc1c[nH]cn1)NC(=O)[C@H](CCCNC(=N)N)NC(=O)[C@H](CC(C)C)NC(=O)[C@H](Cc1ccccc1)NC(=O)[C@H](CC(=O)O)NC(=O)[C@H](C)NC(=O)[C@H](CC(C)C)NC(=O)[C@H](CCCNC(=N)N)NC(=O)[C@H](CCC(N)=O)NC(=O)[C@@H](NC(=O)[C@H](C)NC(=O)[C@@H]1CSSC[C@H](NC(=O)[C@@H](N)CCCNC(=N)N)C(=O)N[C@@H](CC(N)=O)C(=O)N[C@@H]([C@@H](C)O)C(=O)N[C@@H](C)C(=O)N[C@@H]([C@@H](C)O)C(=O)N1)[C@@H](C)O)C(=O)N[C@@H](CC(C)C)C(=O)N1CCC[C@H]1C(=O)N1CCC[C@H]1C(=O)N[C@H](C(=O)N[C@@H](CC(N)=O)C(=O)N[C@H](C(=O)NCC(=O)N[C@@H](CO)C(=O)N[C@@H](CC(N)=O)C(=O)N[C@H](C(=O)N1C[C@H](O)C[C@H]1C(N)=O)[C@@H](C)O)C(C)C)[C@@H](C)O [PD100] (H-RCNTATCATQRLADFLRHK([γGlu-C18 diacid])SNNLGPILPPTNVGSNT[Hyp]-NH2; disulfide 2-7)
EC50 [1]: 0.06 nM

CC[C@H](C)[C@H](NC(=O)[C@@H]1CCCN1C(=O)CNC(=O)[C@H](CC(C)C)NC(=O)[C@H](CC(N)=O)NC(=O)[C@H](CC(N)=O)NC(=O)[C@H](CO)NC(=O)[C@H](CCCCNC(=O)COCCOCCNC(=O)COCCOCCNC(=O)CC[C@H](NC(=O)CCCCCCCCCCCCCCCCC(=O)O)C(=O)O)NC(=O)[C@H](Cc1c[nH]cn1)NC(=O)[C@H](CCCNC(=N)N)NC(=O)[C@H](CC(C)C)NC(=O)[C@H](Cc1ccccc1)NC(=O)[C@H](CC(=O)O)NC(=O)[C@H](C)NC(=O)[C@H](CC(C)C)NC(=O)[C@H](CCCNC(=N)N)NC(=O)[C@H](CCC(N)=O)NC(=O)[C@@H](NC(=O)[C@H](C)NC(=O)[C@@H]1CSSC[C@H](NC(=O)[C@@H](N)CCCNC(=N)N)C(=O)N[C@@H](CC(N)=O)C(=O)N[C@@H]([C@@H](C)O)C(=O)N[C@@H](C)C(=O)N[C@@H]([C@@H](C)O)C(=O)N1)[C@@H](C)O)C(=O)N[C@@H](CC(C)C)C(=O)N1CCC[C@H]1C(=O)N1CCC[C@H]1C(=O)N[C@H](C(=O)N[C@@H](CC(N)=O)C(=O)N[C@H](C(=O)NCC(=O)N[C@@H](CO)C(=O)N[C@@H](CC(N)=O)C(=O)N[C@H](C(=O)N1C[C@H](O)C[C@H]1C(N)=O)[C@@H](C)O)C(C)C)[C@@H](C)O [PD101] (H-RCNTATCATQRLADFLRHK([AEEA-AEEA-γGlu-C18 diacid])SNNLGPILPPTNVGSNT[Hyp]-NH2; disulfide 2-7)
EC50 (EC50, CHO-K1/Ga15/AMY3 CRE-luc cells): 0.012 nM
